According to patent publication US20040074447A1, “Methods of reducing incidence of stillborn pigs by using progesterone receptor antagonists” (priority 2002, published 2004):
Several values for one entry are separate records, joined by “and”; a condition that tells them apart may be missing. Equal values may be shown once. Entries after “also recorded” stand apart in the source; their conditions may differ. Marks after values point to notes of the source that are not given here.

Experiments:
[1] = relative to propranolol; cited from earlier work
sows in labor = conditions: 150 μg, sows in labor before birth of the first pig; cited from earlier work
[2] = tested on: pregnant crossbred female swine; test: Example 2: induction of farrowing in pregnant gilts, oral CP161,258 (two doses or single dose) or intramuscular porcine relaxin; type: in vivo; conditions: for effects on time to birth of the first pig, number born alive, or stillborns: 1200 U porcine relaxin IM on day 113
Description: Animals. […] This BW was used to calculate the amount of test article to administer (T2 and T3).
Randomization of animals. Animals were ranked according to expected farrowing date and then randomly assigned to treatment within blocks of 4 animals each.
Test article administration. […] For treatment groups T2 and T3, test article was diluted (a suspension) to a concentration of 25 mg/ml in 50% propylene glycol and stored refrigerated (2-8° C.).
For treatment groups T2 and T3, animals were snared and test article was administered orally using a 60 ml syringe. […] One container of approximately 440 ml was mixed and used within each week of the 3 wk study. Each animal assigned to T2 or T3 also received approximately 30 ml of tap water to insure that test article was swallowed.
Porcine relaxin was diluted to a concentration of 1200 U/ml in sterile physiological saline on the first day of use. Diluted porcine relaxin was stored in a locked refrigerator and removed only when injections took place. Relaxin (1 ml-T4) was administered intramuscularly in the lower part of the ham of either leg with an 18-gauge, 1.5″ long needle attached to a 3 ml syringe.
Administration of test articles occurred between 7:30 am and 8:30 am on almost all days of the study.
Piglets. Response variables measured in this study were: hours from the 1st treatment to the birth of the 1st pig, number of piglets that were alive at birth (born alive), stillborn (normal appearance term piglet, but dead at time of birth), and mummies (smaller than littermates, decayed at birth). Animals were not processed (no iron shots, no clipping of needle teeth, no individual identification), but umbilical cords were clipped to […]. length if animals could not be euthanized within 2 days after birth.
Data/Analyses. […] Data were analyzed using a mixed model analysis with block as a random effect and treatment as a fixed effect (proc mixed, SAS).

[3] = T4: 1200 U pRelaxin intramuscular day 113, counted from (day 113), mean ± SD
[4] = T4: 1200 U pRelaxin intramuscular day 113, mean
[5] = Treatment 4: 1200 IU Relaxin intramuscular day 113, individual animals

For `CC(C)NCC(O)COc1cccc2[nH]c3ccccc3c12` (centres unmarked) [carazolol], the “membrane stabilizing potential, less than that of propranolol” value [1] is given as 13 fold.

In the case of `CC(C)(C)NCC(O)c1cc(Cl)c(N)c(Cl)c1` (centres unmarked) [clenbuterol], the delay of parturition (sows in labor) is listed as “up to 15 hr”.

For Porcine relaxin, the “effects on time to birth of the first pig, number born alive, or stillborns” value [2] was “not effective”, the “effects on time to birth of the first pig, number born alive, or stillborns” value ([2]; listed as porcine relaxin) was “did not have beneficial effects” and the “Hr, Dose d 112 To 1st pig ± SD” value [2, 3] was 56 ± 26 (13) Hr. The “Hr, Dose d 113 To 1st pig ± SD” value [2, 3] was 56 ± 26^d (13) Hr, the “Piglet data: Born alive” value [2, 4] was 6.4 (12) and the “Piglet data: Mummies” value [2, 4] was 0.3 (12). The “Piglet data: Stillborn” value [2, 4] was 1.6 (12), the “Reason (animals with incomplete data)” value ([2]; T4 Relaxin, individual animals) was “Dystocia (born alive, stillborns, mummy count; also recorded: Dystocia-(born alive, stillborns, mummy count” and the “Born Alive” value [2, 5] was 6 (3×) and 3 and 8 and 4 (2×) and 9 (2×) and 1 and 14 and 7. The “Hr, 1st treatment to 1st pig” value [2, 5] was 10.9 h and 25.3 h and 34.2 h and 47.4 h and 48.5 h and 49.2 h and 49.7 h and 51 h and 69.9 h and 74.9 h and 77.2 h and 82.4 h and 106.3 h, the Mummies [2, 5] was 2 and 0 (10×) and 1 and the Still-born [2, 5] was 5 and 0 (2×) and 1 (4×) and 2 (5×).
